Like-named read-outs stand apart in the source and are kept apart here.
Columns and labels:
human (h) TRPV3 = target: T1, human (h) TRPV3 (Homo sapiens, UniProt Q8NET8); test: Whole-cell patch clamp, human TRPV3-mediated currents; type: cell-based;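 further: compounds tested at concentrations up to 30 µM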
T1 construct: expressed in transfected cells; host or cells: HEK293/TREx, tetracycline-induced
T1 sequence (Q8NET8 1-790): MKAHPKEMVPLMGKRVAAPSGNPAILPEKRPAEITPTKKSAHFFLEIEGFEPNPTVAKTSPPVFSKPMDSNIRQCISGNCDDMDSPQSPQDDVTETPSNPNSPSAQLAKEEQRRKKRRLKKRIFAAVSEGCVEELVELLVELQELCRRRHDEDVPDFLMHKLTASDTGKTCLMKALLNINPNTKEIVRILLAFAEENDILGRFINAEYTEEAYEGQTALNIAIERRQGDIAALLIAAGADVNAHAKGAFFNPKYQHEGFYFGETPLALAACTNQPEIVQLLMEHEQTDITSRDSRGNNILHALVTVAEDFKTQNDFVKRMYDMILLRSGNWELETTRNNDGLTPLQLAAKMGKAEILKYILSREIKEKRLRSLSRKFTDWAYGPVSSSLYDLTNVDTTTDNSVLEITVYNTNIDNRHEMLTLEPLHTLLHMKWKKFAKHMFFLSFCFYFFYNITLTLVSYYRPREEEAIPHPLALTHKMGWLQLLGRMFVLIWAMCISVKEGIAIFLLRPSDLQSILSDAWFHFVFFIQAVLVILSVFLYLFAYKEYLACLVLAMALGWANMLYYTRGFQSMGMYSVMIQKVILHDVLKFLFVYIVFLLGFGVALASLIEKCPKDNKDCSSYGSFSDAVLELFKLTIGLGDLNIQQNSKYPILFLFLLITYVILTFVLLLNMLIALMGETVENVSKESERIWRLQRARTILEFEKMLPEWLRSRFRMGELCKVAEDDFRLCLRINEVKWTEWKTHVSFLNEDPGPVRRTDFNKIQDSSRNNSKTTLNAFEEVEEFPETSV
Text: (§1) Whole-cell patch clamp experiments permit the detection of currents through the TRPV3 channel in the cell line described above. A glass electrode is brought into contact with a single cell and the membrane is then ruptured, permitting control of the voltage of the cell membrane and measurement of currents flowing across the membrane using the amplifier attached to the electrode. A perfusion system permits control of the extracellular solution, including the addition of blockers and activators of the current. The current can be activated by heating this solution to 28° C. or warmer or by addition of 20 μM 2-APB to the solution.
(§2) TRPV3 cells were induced 20-48 hours, removed from growth plates, and replated at low density (to attain good single-cell physical separation) on glass coverslips for measurement. In some cases, cells were grown in low density overnight on glass coverslips. Patch clamp recordings were made in the whole-cell mode with a holding potential of −40 mV. Every 5 seconds, a voltage ramp was applied from −120 to +100 mV, 400 ms in duration. Currents elicited were quantified at −80 mV and +80 mV. The internal solution consisted of 140 mM cesium aspartate, 10 mM EGTA, 2.27 mM MgCl2, 1.91 mM CaCl2 and 10 mM HEPES, pH to 7.2 with KOH; with 50 nM calculated free Ca^2+. External solution was Ringer's solution described above. Upon addition of 2-APB or upon heating of the extracellular solution as described above, TRPV3 current was induced only in TRPV3-expressing cells and not in parental HEK293 TREx cells. […] Removal of the stimulus caused most of the current to go away, and inhibitor addition could still inhibit this current. […]
(§3) P1 refers to the Phase 1 current for human (h) and rat (r) TRPV3, and P2 refers to the Phase 2 current for human (h) and rat (r) TRPV3.

rat (r) TRPV3 = target: T2, rat (r) TRPV3 (Rattus norvegicus, UniProt Q4QYD9); test: Whole-cell patch clamp, rat TRPV3-mediated currents; type: cell-based;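 further: compounds tested at concentrations up to 30 µM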
T2 construct: expressed in transfected cells
T2 sequence (Q4QYD9 1-791): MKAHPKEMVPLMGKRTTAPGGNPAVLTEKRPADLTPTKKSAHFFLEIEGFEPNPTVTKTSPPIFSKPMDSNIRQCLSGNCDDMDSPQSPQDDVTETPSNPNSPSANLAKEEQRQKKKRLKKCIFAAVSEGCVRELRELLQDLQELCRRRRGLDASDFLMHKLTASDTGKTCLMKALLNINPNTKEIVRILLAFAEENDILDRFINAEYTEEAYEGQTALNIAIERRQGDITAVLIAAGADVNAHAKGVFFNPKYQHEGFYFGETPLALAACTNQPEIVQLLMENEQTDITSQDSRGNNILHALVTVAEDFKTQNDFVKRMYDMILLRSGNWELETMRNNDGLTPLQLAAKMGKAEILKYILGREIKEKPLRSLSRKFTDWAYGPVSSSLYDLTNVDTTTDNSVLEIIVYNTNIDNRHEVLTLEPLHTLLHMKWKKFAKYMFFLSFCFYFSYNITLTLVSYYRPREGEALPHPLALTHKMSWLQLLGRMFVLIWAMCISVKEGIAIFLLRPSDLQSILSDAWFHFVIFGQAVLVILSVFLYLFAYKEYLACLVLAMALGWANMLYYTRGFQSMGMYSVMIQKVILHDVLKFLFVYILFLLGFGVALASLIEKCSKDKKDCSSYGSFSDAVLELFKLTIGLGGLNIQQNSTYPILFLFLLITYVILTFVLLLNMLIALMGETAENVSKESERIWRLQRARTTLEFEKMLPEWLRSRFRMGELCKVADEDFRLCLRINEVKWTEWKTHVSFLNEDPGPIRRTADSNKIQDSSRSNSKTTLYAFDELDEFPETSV
Text: as §1, §2, §3

hERG [1] = target: T3, hERG (Homo sapiens, UniProt Q12809); test: Ion channel selectivity, hERG channel current
T3 sequence (Q12809 whole entry): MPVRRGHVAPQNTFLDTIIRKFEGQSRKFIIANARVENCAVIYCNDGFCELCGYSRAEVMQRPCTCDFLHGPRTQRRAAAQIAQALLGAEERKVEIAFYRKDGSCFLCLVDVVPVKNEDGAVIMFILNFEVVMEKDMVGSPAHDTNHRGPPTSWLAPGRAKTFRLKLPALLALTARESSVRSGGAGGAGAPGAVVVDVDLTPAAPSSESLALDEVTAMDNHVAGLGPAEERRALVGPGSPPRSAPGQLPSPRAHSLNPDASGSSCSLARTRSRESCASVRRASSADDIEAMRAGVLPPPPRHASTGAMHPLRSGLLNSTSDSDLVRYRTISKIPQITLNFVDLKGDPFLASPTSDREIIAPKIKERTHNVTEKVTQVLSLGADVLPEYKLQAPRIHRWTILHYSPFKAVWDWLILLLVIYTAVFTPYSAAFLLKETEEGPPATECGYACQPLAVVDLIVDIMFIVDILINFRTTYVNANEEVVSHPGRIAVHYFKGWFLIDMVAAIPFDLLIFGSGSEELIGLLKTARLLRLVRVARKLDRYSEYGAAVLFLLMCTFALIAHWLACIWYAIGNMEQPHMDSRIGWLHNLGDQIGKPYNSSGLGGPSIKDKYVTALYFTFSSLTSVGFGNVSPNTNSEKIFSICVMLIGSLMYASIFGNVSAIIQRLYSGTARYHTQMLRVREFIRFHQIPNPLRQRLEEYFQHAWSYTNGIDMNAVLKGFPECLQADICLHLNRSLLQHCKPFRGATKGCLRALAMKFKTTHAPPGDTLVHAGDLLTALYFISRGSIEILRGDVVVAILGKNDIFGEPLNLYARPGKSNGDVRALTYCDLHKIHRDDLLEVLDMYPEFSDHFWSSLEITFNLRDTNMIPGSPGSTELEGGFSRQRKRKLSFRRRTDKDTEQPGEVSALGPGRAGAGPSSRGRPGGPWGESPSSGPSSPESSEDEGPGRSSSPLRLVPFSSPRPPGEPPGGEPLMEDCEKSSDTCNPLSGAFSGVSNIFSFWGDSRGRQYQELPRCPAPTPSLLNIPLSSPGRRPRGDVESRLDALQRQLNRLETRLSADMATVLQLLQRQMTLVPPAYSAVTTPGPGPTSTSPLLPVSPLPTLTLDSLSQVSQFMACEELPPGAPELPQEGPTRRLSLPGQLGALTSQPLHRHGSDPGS
Procedure: (§4) Compounds of interest can be tested against these channels at concentrations up to 30 μM, and the resulting data can be used to estimate IC50 for inhibition of the activity of these other ion channels.

hERG [2] = target: T3, hERG; test: in vitro
Procedure: as §4

TRPV3 channel = target: T4, TRPV3 channel (Homo sapiens, UniProt Q8NET8); test: High-throughput screening assay: Ca2+ rise after 2-APB activation in HEK293/TREx cells inducibly expressing TRPV3; type: cell-based; conditions: read-out: IC50 for inhibition of TRPV3 activity; Ca2+ flux, Fura-2, 150 μM 2-APB
T4 construct: expressed in transfected cells; host or cells: HEK293/TREx (Invitrogen), tetracycline-induced
T4 sequence (Q8NET8 1-790): T1 sequence (Q8NET8 1-790)
Text: The assay depends on detection of the rise in intracellular Ca^2+ concentration ([Ca^2+]i) following channel activation in cells inducibly expressing the TRPV3 channel. Ca^2+ rise is quantified with the use of fluorescent Ca^2+ indicators that are loaded into cells and thereafter indicated the [Ca^2+]i. Ca^2+ influx follows activation of the TRPV3 channel. Compounds inhibiting this [Ca^2+]i rise are considered hits for further investigation.
The commercially available HEK293/TREx line (Invitrogen) was stably transfected with a TRPV3 construct and screened by immunostaining to find clones with TRPV3 expression following stimulation with 1 μg/ml tetracycline. Clonal TRPV3-expressing cells were maintained in the growth medium recommended by the manufacturer supplemented with 100 μg/ml hygromycin to promote retention of the TRPV3 construct. After growing to near confluency, cells are plated at a density of ˜25,000 cells/well in 384 well plates in the presence of 1 μg/ml tetracycline, and allowed to grow for 20-30 hrs. A nearly confluent monolayer results. […] These controls defined a screening window, and “hits” were defined as those test compounds inhibiting the fluorescence response by at least 40%.

[3] = Phase 2 inward current, read-out: P2 In (h)
[4] = Phase 2 outward current, read-out: P2 Out (h)
[5] = Phase 1 inward current, read-out: P1 In (r)
[6] = Phase 1 outward current, read-out: P1 Out (r)
[7] = Phase 2 inward current, read-out: P2 In (r)
[8] = Phase 2 outward current, read-out: P2 Out (r)
[9] = Phase 1 inward current, read-out: P1 In (h)
[10] = Phase 1 outward current, read-out: P1 Out (h)

SMILES | IC50 (human (h) TRPV3; [3]) [nM] | IC50 (human (h) TRPV3; [4]) [nM] | IC50 (rat (r) TRPV3; [5]) [nM] | IC50 (rat (r) TRPV3; [6]) [nM] | IC50 (rat (r) TRPV3; [7]) [nM] | IC50 (rat (r) TRPV3; [8]) [nM] | IC50 (human (h) TRPV3; [9]) [nM] | IC50 (human (h) TRPV3; [10]) [nM] | IC50 (hERG [1]) [nM] | IC50 (hERG [2]) [nM] | IC50 (TRPV3 channel) [nM]
COc1cccc(C=Cc2nc3cnccc3c(=O)n2-c2c(C)cccc2C)c1O [Compound 8] | ≤ 500 | ≤ 500 | ≤ 500 | ≤ 500 | ≤ 500 | ≤ 500 | – | – | ≥ 20000 | – | –
COc1nccc(/C=C/c2nc3ccccc3c(=O)n2-c2c(C)cccc2C)c1O [Compound 37] | ≤ 500 | ≤ 500 | ≤ 500 | ≤ 500 | ≤ 500 | ≤ 500 | ≤ 500 | ≤ 500 | – | ≥ 20000 | –
Cc1cccc(C)c1-n1c(/C=C/c2cccc3cn[nH]c23)nc2ccccc2c1=O [Compound 40] | – | – | – | – | – | – | – | – | – | – | < 5000
COc1cccc(/C=C/c2nc3ccccc3c(=O)n2-c2c(F)cccc2F)c1O [Compound 56] | ≤ 500 | ≤ 500 | ≤ 500 | ≤ 500 | ≤ 500 | ≤ 500 | ≤ 500 | ≤ 500 | – | – | –

The next lines start with results.

IC50 (human (h) TRPV3; [3]) [nM] | IC50 (human (h) TRPV3; [4]) [nM] | IC50 (rat (r) TRPV3; [5]) [nM] | IC50 (rat (r) TRPV3; [6]) [nM] | IC50 (rat (r) TRPV3; [7]) [nM] | IC50 (rat (r) TRPV3; [8]) [nM] | IC50 (human (h) TRPV3; [9]) [nM] | IC50 (human (h) TRPV3; [10]) [nM] | SMILES | IC50 (hERG [1]) [nM] | IC50 (hERG [2]) [nM] | IC50 (TRPV3 channel) [nM]
≤ 500 | ≤ 500 | ≤ 500 | ≤ 500 | – | – | ≤ 500 | ≤ 500 | CCOc1cccc(/C=C/c2nc3cnccc3c(=O)n2-c2c(C)cccc2C)c1O [Compound 11] | ≥ 20000 | – | –
≤ 500 | ≤ 500 | ≤ 500 | ≤ 500 | ≤ 500 | ≤ 500 | ≤ 500 | ≤ 500 | CCOc1cccc(C=Cc2nc3ccccc3c(=O)n2-c2c(C)cccc2C)c1O [Compound 49] | ≥ 20000 | – | –
≤ 500 | ≤ 500 | ≤ 500 | ≤ 500 | ≤ 500 | ≤ 500 | ≤ 500 | ≤ 500 | CCc1cccc(CC)c1-n1c(/C=C/c2cccc(OC)c2O)nc2ccccc2c1=O [Compound 50] | ≥ 20000 | – | –
≤ 500 | ≤ 500 | ≤ 500 | ≤ 500 | – | – | ≤ 500 | ≤ 500 | Cc1cccc(C)c1-n1c(/C=C/c2cccc(OC(F)(F)F)c2O)nc2ccccc2c1=O [Compound 55] | ≥ 20000 | – | –
≤ 500 | ≤ 500 | ≤ 500 | ≤ 500 | – | – | ≤ 500 | ≤ 500 | CCOc1cccc(C=Cc2nc3ccccc3c(=O)n2-c2c(F)cccc2F)c1O [Compound 57] | – | – | –

From patent publication US9486455B2, “Compounds for modulating TRPV3 function” (HYDRA BIOSCIENCES, INC., priority 2007, dated 2016)
